Some test systems named below: OVCAR-3 ovarian; HL-60(TB) leukemia; UO-31 renal; SNB-19 CNS; SK-MEL-5 melanoma; NCI-H23 lung; HOP-62 NSCLC; MALME-3M melanoma; HOP-92 NSCLC; SK-MEL-2 melanoma.
Holding throughout (assay): inhibition of tumour cell growth, NCI panel, 48 h

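Cells were grown in 96-well plates and exposed to each compound for 48 hours at five concentrations; endpoints were interpolated linearly between bracketing concentrations, or set to the highest concentration if not reached. Here, GI50 denotes the concentration required for 50% inhibition of growth. TGI: total growth inhibition.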 Where a SMILES comes first, the peptide text is derived from it. Bounds are passed on as bounds.

Consider `CCc1ccccc1NC(=O)CCc1n[nH]c(=S)o1`, for which the TGI in the test with OVCAR-3 ovarian, with HL-60(TB) leukemia, with UO-31 renal, in the test on SNB-19 CNS, in the test with SK-MEL-5 melanoma and with NCI-H23 lung was more than 100 µM throughout. The TGI in the test on HOP-62 NSCLC, in the test on MALME-3M melanoma and with HOP-92 NSCLC was more than 100 µM throughout.

In the case of `COC(=O)C(C(=O)C(=O)NC1=C(Cl)C(=O)c2ccccc2C1=O)c1csc(-n2nc(-c3ccccc3)cc2-c2ccccc2)n1` (stereo not drawn), the TGI in the test with OVCAR-3 ovarian, in the test on HL-60(TB) leukemia, in the test with UO-31 renal, in the test with SNB-19 CNS, in the test on NCI-H23 lung and in the test with HOP-62 NSCLC was more than 100 µM in each case. Further, the TGI with MALME-3M melanoma and in the test on HOP-92 NSCLC was more than 100 µM in each case.

Take `NC(=O)N/N=C(\C(=O)C(=O)Nc1ccc(Cl)c(C(F)(F)F)c1)c1nc2ccc(C(=O)c3ccccc3)cc2[nH]c1=O`: the TGI with SK-MEL-2 melanoma, in the test on UO-31 renal, in the test on SNB-19 CNS, in the test with SK-MEL-5 melanoma, in the test with NCI-H23 lung and with MALME-3M melanoma was more than 100 µM each time. Further, the TGI in the test on HOP-92 NSCLC is 47.3 µM.

On to `Oc1ccc(CNCc2ccccc2)c2cccnc12`, for which the TGI in the test on OVCAR-3 ovarian was 0.721 µM; with HL-60(TB) leukemia, 1.05 µM; in the test with UO-31 renal it was more than 24.4 µM; in the test with SNB-19 CNS, more than 100 µM; in the test with NCI-H23 lung it was more than 100 µM; in the test with HOP-62 NSCLC it was more than 51.2 µM. Also, in the test on HOP-92 NSCLC, the TGI turned out to be 0.57 µM.

With `CC(=O)NC(CCCCNC(=O)N(CCCl)N=O)C(=O)NCc1ccccc1` (stereo not drawn), the TGI with OVCAR-3 ovarian, in the test on SK-MEL-2 melanoma, with HL-60(TB) leukemia, with UO-31 renal, in the test on SNB-19 CNS and in the test with NCI-H23 lung was more than 100 µM each time. Further, the TGI with HOP-62 NSCLC, with MALME-3M melanoma and in the test with HOP-92 NSCLC was more than 100 µM throughout.

On to `Cc1ccc([N+](=O)[O-])cc1NC(=O)C(=O)Cc1occc(=O)c1O`, for which the TGI in the test on OVCAR-3 ovarian, with HL-60(TB) leukemia, in the test on UO-31 renal, in the test with SNB-19 CNS, in the test on SK-MEL-5 melanoma and in the test on HOP-62 NSCLC was more than 100 µM throughout. The TGI in the test on HOP-92 NSCLC was more than 100 µM.

Take `Cc1cc(O)c(C(c2cccnc2)c2c(O)cc(C)[nH]c2=O)c(=O)[nH]1`: the TGI with OVCAR-3 ovarian, in the test on HL-60(TB) leukemia, in the test on UO-31 renal, with SNB-19 CNS, with SK-MEL-5 melanoma and in the test on NCI-H23 lung was more than 100 µM each time. The TGI in the test with HOP-62 NSCLC and with MALME-3M melanoma was more than 100 µM in each case.

In the case of `O=C1C(=O)N(C(=O)c2ccc(Cl)c(Cl)c2)c2ccc(Cl)cc21`, the TGI was more than 100 µM with OVCAR-3 ovarian; 61.6 µM with HL-60(TB) leukemia; more than 100 µM in the test with UO-31 renal; more than 100 µM with SNB-19 CNS; more than 100 µM in the test with SK-MEL-5 melanoma; more than 100 µM in the test on NCI-H23 lung.

On to `O=C(Nc1ccccc1)Nc1cccc(-n2cc(-c3ccncc3)c(-c3ccc(O)c(Cl)c3)n2)c1`, for which the GI50 is 2.49 µM in the test on SK-MEL-2 melanoma; 2.32 µM in the test with HL-60(TB) leukemia; 3.43 µM with UO-31 renal; 6.27 µM with SNB-19 CNS; 1.78 µM in the test with SK-MEL-5 melanoma; 3.82 µM in the test on NCI-H23 lung. Moreover, the GI50 in the test with HOP-62 NSCLC was 4.93 µM; in the test on MALME-3M melanoma, 2.25 µM. Besides, the TGI was 5.63 µM with SK-MEL-2 melanoma; 5.36 µM in the test with HL-60(TB) leukemia; 31.8 µM in the test on UO-31 renal; more than 100 µM in the test with SNB-19 CNS; 3.35 µM in the test with SK-MEL-5 melanoma; 21.4 µM in the test with NCI-H23 lung. Also, the TGI was found to be 53.6 µM with HOP-62 NSCLC and 6.02 µM in the test on MALME-3M melanoma.

Regarding `CC1(C)OC(C(N)=O)=C(C(N)=O)O1`, the TGI in the test on OVCAR-3 ovarian, in the test with SK-MEL-2 melanoma, with HL-60(TB) leukemia, in the test with UO-31 renal, with SNB-19 CNS and in the test with NCI-H23 lung was more than 100 µM throughout. The TGI in the test with HOP-62 NSCLC, in the test with MALME-3M melanoma and in the test on HOP-92 NSCLC was more than 100 µM each time.

Turning to `CC(C)CC(NC(=O)C(CC(C)C)NC(=O)C(Cc1cnc[nH]1)NC(=O)C(C)NC(=O)C(NC(=O)C(C)NC(=O)C(Cc1c[nH]c2ccccc12)NC(=O)C(CCC(=O)O)NC(=O)C(N)Cc1ccccc1)C(C)C)C(N)=O` (stereo not drawn) (H-FEWAVAHLL-NH2; configuration not given here), the GI50 in the test with OVCAR-3 ovarian was more than 100 µM; with SK-MEL-2 melanoma, more than 100 µM; with HL-60(TB) leukemia it was more than 100 µM; in the test with UO-31 renal, 70.9 µM; with NCI-H23 lung it was more than 100 µM; in the test on HOP-62 NSCLC, more than 100 µM. Also, the TGI was more than 100 µM in the test on OVCAR-3 ovarian; more than 100 µM with SK-MEL-2 melanoma; more than 100 µM in the test with HL-60(TB) leukemia; more than 100 µM in the test with UO-31 renal; more than 100 µM in the test with SNB-19 CNS; more than 12.5 µM with SK-MEL-5 melanoma. Also, the TGI in the test with NCI-H23 lung was more than 100 µM; in the test on HOP-62 NSCLC it was more than 100 µM; in the test on MALME-3M melanoma, more than 12.5 µM.

On to `O=[N+]([O-])c1cc(CCl)ccc1CCl`, for which the TGI is 3.27 µM in the test with OVCAR-3 ovarian; 7.83 µM in the test with SK-MEL-2 melanoma; 3.18 µM in the test on UO-31 renal; 3.8 µM in the test on SNB-19 CNS; 11.5 µM in the test on SK-MEL-5 melanoma; 5.1 µM in the test with NCI-H23 lung. Also, the figures for the TGI in the test on HOP-62 NSCLC, in the test with MALME-3M melanoma and in the test on HOP-92 NSCLC were 2.93 µM, 3.51 µM and 3.37 µM, respectively.

Regarding `CCOC(=O)/C(=C/c1ccc([N+](=O)[O-])cc1)C(=O)c1ccccc1`, the GI50 in the test on OVCAR-3 ovarian is 2.56 µM; in the test on SK-MEL-2 melanoma, 2.24 µM; in the test with HL-60(TB) leukemia, 2.34 µM; with UO-31 renal, 1.66 µM; in the test on SNB-19 CNS it was 2.4 µM; in the test with SK-MEL-5 melanoma, 1.94 µM. For the same compound, the GI50 in the test with NCI-H23 lung is 2.25 µM; with HOP-62 NSCLC it was 2.28 µM; in the test on HOP-92 NSCLC, 2.01 µM. Also, the TGI with OVCAR-3 ovarian was 5.96 µM; with SK-MEL-2 melanoma it was 5.15 µM; with HL-60(TB) leukemia, 5.87 µM; in the test with UO-31 renal it was 3.18 µM; in the test with SNB-19 CNS, 5.81 µM; in the test on SK-MEL-5 melanoma, 3.62 µM. In addition, the values for the TGI in the test with NCI-H23 lung, with HOP-62 NSCLC and in the test with HOP-92 NSCLC were 5.56 µM, 6.07 µM and 4.45 µM, respectively.
